100 compounds from ChEMBL document CHEMBL3507680, “University of Dundee, Gates Library screen for HepG2 cell viability” can be followed below.

Molecules are shown by their SMILES.

This data set in a line: Human HepG2 cell viability assay in 384 well format. The class given is toxicity, cell-based. The arrangement: dose 125 nL, time 70.5 hour; concentration not given beside the values. Conditions: HepG2 cells, read-out: Inhibition.
Turning to `NC(=O)C1CCN(C(=O)c2ccccc2OCc2ccncc2)CC1`, the cytotoxicity at 70.5 h is -12.3%.

Consider `O=C(CSC1CCc2ccccc2NC1=O)NCc1ccccc1` (stereo not given), for which the cytotoxicity at 70.5 h was 6.38%.

For `CCOCc1ccc(CNc2nc(OC)ncc2Cl)cc1`, the cytotoxicity at 70.5 h is -10.8%.

`COCC1CCN(c2ccnc3ccsc23)C1` (stereo not given): the cytotoxicity at 70.5 h was -5.48%.

Regarding `CCCN1CCC(CC(=O)N(C)CC(=O)c2ccc(O)cc2)CC1`, the cytotoxicity at 70.5 h was -12.2%.

`Cn1cc(CN2CCC3(CCCN(C(=O)c4cscn4)C3)C2)cn1` (stereo not given): the cytotoxicity at 70.5 h was -3.85%.

On to `COc1cc(CN(C)C(=O)NCc2ccccn2)ccc1SC`, for which the cytotoxicity at 70.5 h is 15.9%.

For the compound `CCc1nc(CN(C)C2CCN(Cc3nc(C4CC4)no3)C2)no1` (stereo not given), the cytotoxicity at 70.5 h amounted to 31.8%.

On to `Cc1cnc(CN2CCCC2c2noc(C)n2)cn1` (stereo not given), for which the cytotoxicity at 70.5 h turned out to be 5.04%.

On to `COc1ccccc1OCCCc1cc(C)nc(N)n1`, for which the cytotoxicity at 70.5 h is -7.2%.

In the case of `Cc1nc(NCc2cccc(F)c2)cc(C2CCNCC2)n1`, the cytotoxicity at 70.5 h is 0.802%.

Regarding `O=C(c1ccccn1)N1CCCC(c2cc(C(F)F)n3ncnc3n2)C1` (stereo not given), the cytotoxicity at 70.5 h is -4.56%.

`CCS(=O)(=O)N1CCN(CC(F)(F)F)CC1`: the cytotoxicity at 70.5 h was -5.53%.

`CCc1cc(NCCCNS(C)(=O)=O)nc(-c2ccccn2)n1`: the cytotoxicity at 70.5 h was -7.43%.

In the case of `CCc1ncc(C(=O)NC(C)(C)C(=O)OC)s1`, the cytotoxicity at 70.5 h was found to be 12.2%.

Consider `CSCC(=O)N(C)Cc1ccc(N(C)C)cc1`, for which the cytotoxicity at 70.5 h is -6.63%.

On to `NC(=O)CSCC(=O)NCC1CCCC1`, for which the cytotoxicity at 70.5 h is -10.8%.

For `COc1ccc(-c2nc(C3(NC(=O)OC(C)(C)C)CCC3)no2)cn1`, the cytotoxicity at 70.5 h was -3.79%.

Turning to `Cc1nc(C(=O)N2CCN(c3ccc(Cl)c(Cl)c3)CC2)cs1`, the cytotoxicity at 70.5 h is -3.76%.

For the compound `COc1ccccc1CNCc1nn(-c2ccccc2)c2c1CCC2`, the cytotoxicity at 70.5 h came to 0.28%.

Consider `Cn1ccnc1CNC1CCCN(Cc2noc(C3CC3)n2)C1` (stereo not given), for which the cytotoxicity at 70.5 h was -3.59%.

As to `CN(C)CCO[C@H]1C[C@@H](O)C12CCN(c1ncccc1Cl)CC2`, the cytotoxicity at 70.5 h was -5.24%.

As for `Cc1ccn(-c2ccc(N3CCN(Cc4ccccn4)CC3)nn2)n1`, the cytotoxicity at 70.5 h is -7.77%.

As for `CSCC(C)(O)CNS(=O)(=O)c1ccc(Br)cc1` (stereo not given), the cytotoxicity at 70.5 h came out at 23.8%.

As for `Cc1cccc(OCCN2CCN(Cc3cnn(CCO)c3)CC2)c1`, the cytotoxicity at 70.5 h is -1.35%.

For `Cc1ccnn1CCC(=O)N1CCCC[C@]2(C)NC(=O)CCC[C@H]12`, the cytotoxicity at 70.5 h was -7.45%.

On to `CCc1nc(NCCCn2cccn2)c2c(n1)c(C)nn2C`, for which the cytotoxicity at 70.5 h was -1.69%.

For `CC(C)c1nccn1C1CCCN(C(=O)c2cn3cccnc3n2)C1` (stereo not given), the cytotoxicity at 70.5 h was -3.43%.

With `O=C(NCC1CCCN(Cc2cccc3nonc23)C1)c1ccc[nH]1` (stereo not given), the cytotoxicity at 70.5 h is 3.08%.

For `Cc1cc(NC(C)c2nnn[nH]2)n2nc(C)c(C)c2n1` (stereo not given), the cytotoxicity at 70.5 h came out at 5.16%.

`c1cc(CN2CCCC2)cc(-n2ccnc2-c2ccncc2)c1`: the cytotoxicity at 70.5 h worked out at 0.243%.

As to `Cc1ccsc1C(=O)N1CC[C@H]2CO[C@H](CN(C)C)[C@H]2C1`, the cytotoxicity at 70.5 h was -6.98%.

In the case of `Cc1nc(CN2CCCC(c3cc(C(F)(F)F)[nH]n3)C2)cs1` (stereo not given), the cytotoxicity at 70.5 h was -3.08%.

`Cc1ccoc1C(=O)N1C[C@H](OCc2cccnc2)[C@H]2OCCC[C@H]21`: the cytotoxicity at 70.5 h is -15.2%.

On to `O=C(Nc1ccn(Cc2cccc3cccnc23)n1)C1COCCO1` (stereo not given), for which the cytotoxicity at 70.5 h was -8.35%.

In the case of `Cn1ccc2c(C(=O)NCC3(C(N)=O)CCOCC3)cccc21`, the cytotoxicity at 70.5 h was 1.25%.

Take `COc1ccc(Br)c(NC(=O)NCc2cnn(C)c2)c1`: the cytotoxicity at 70.5 h is -13.3%.

For `CC1CCCCN1C(=O)c1n[nH]c(=O)c2ccccc12` (stereo not given), the cytotoxicity at 70.5 h is 32.4%.

In the case of `COCc1noc(CN2C[C@H](NS(C)(=O)=O)[C@@H](C3CC3)C2)n1`, the cytotoxicity at 70.5 h is -11%.

As for `N#Cc1ccccc1OCCN1CCN(C(=O)C2CCCC2)CC1`, the cytotoxicity at 70.5 h was 7.87%.

Regarding `Cc1csc(N2CCN(C3CCc4ccccc4C3)CC2)n1` (stereo not given), the cytotoxicity at 70.5 h came to 13%.

In the case of `O=C1CC(N2CCN(c3ccccc3O)CC2)C(=O)N1Cc1cccs1` (stereo not given), the cytotoxicity at 70.5 h was -12.2%.

With `CN(C)C1(CNc2ncc(Br)cn2)CCOCC1`, the cytotoxicity at 70.5 h was -10.2%.

Take `Cc1cccc(N2CCC(N3CCCC4(CNC(=O)O4)C3)CC2)c1C` (stereo not given): the cytotoxicity at 70.5 h was -7.33%.

Consider `CCN1CCNC(=O)C12CCN(S(=O)(=O)c1ccc(F)cc1)CC2`, for which the cytotoxicity at 70.5 h was found to be 0.587%.

Turning to `Cn1ccnc1CN1CCC2(CCC(=O)N2CCN2CCCC2)CC1`, the cytotoxicity at 70.5 h is -8.64%.

`Cc1nn(CC(=O)O)c(C)c1NS(=O)(=O)c1cc2ccccc2s1`: the cytotoxicity at 70.5 h turned out to be 24.3%.

With `COCCO[C@H]1CCN(c2ccc(C)nn2)[C@H]1Cc1cnn(C)c1`, the cytotoxicity at 70.5 h is -3.27%.

In the case of `Cc1cc(C)cc(N(C)S(=O)(=O)c2cc(C(=O)O)cs2)c1`, the cytotoxicity at 70.5 h is -6.25%.

Consider `Cc1cncc(C(=O)N2CCCC(C(=O)CCc3ccccc3)C2)c1` (stereo not given), for which the cytotoxicity at 70.5 h is -5.02%.

Turning to `Cc1nc(O)cc([C@@H]2CN(C(=O)C3CC3)C[C@H]2c2ccccc2F)n1`, the cytotoxicity at 70.5 h is -2.23%.

Consider `CN1CCN(Cc2cnc3n2CCN(C(=O)c2cscn2)C3)CC1`, for which the cytotoxicity at 70.5 h was -3%.

As to `Cn1nc2c(cc1=O)CN(Cc1ccc(-n3cccn3)cc1)CC2`, the cytotoxicity at 70.5 h is -6.38%.

Regarding `Cc1noc(C)c1CN1CCC2(CC1)C(c1cnn(C)c1)CC(=O)N2C` (stereo not given), the cytotoxicity at 70.5 h was -7.83%.

Consider `CN(C)Cc1ccc(C(N)=O)cc1NC(=O)c1cccc(C#N)c1`, for which the cytotoxicity at 70.5 h is -4.53%.

As for `CC(C)C1CCC(N2CCN(CCS(C)(=O)=O)CC2)CC1` (stereo not given), the cytotoxicity at 70.5 h was -4.3%.

Consider `Cc1occc1C(=O)NC1CCN(C(=O)Nc2cccnc2)CC1`, for which the cytotoxicity at 70.5 h was -5.69%.

For the compound `Cc1cccc(C2CCCN2S(=O)(=O)N(C)C)n1` (stereo not given), the cytotoxicity at 70.5 h is -2.59%.

As to `Cc1cccc(CN2C(=O)CO[C@@H]3CN(Cc4cnn(C)c4)C[C@H]32)c1`, the cytotoxicity at 70.5 h was 4.73%.

Take `CC(NCc1ccccc1CN1CCCC1=O)c1ccc(C#N)cc1` (stereo not given): the cytotoxicity at 70.5 h was found to be 4.5%.

Take `CCOc1ccc(C#N)cc1NCC(=O)NC1(C#N)CCCC1`: the cytotoxicity at 70.5 h was -6.01%.

Regarding `Cc1cnn(C2CN(CCOc3ccccc3C#N)C2)c1`, the cytotoxicity at 70.5 h is -4.34%.

As for `CNc1nc(N2C[C@H](NC(=O)CCOC)[C@@H](C3CC3)C2)nc2c1CCC2`, the cytotoxicity at 70.5 h was -15.7%.

For `CCCC(=O)Nc1ccc2c(c1)C1(CCOCC1)CN2CCOC`, the cytotoxicity at 70.5 h worked out at 18.8%.

With `Cc1cc2nc(C(C)C)cc(N3CCC(Oc4ncccn4)CC3)n2n1`, the cytotoxicity at 70.5 h came to 48.7%.

`CN1CCN(C(=O)c2n[nH]c3c2CN(C2CCOCC2)CC3)CC1`: the cytotoxicity at 70.5 h was -10.2%.

Turning to `Cc1cc(CN2CCc3nc(-c4ccncc4)nc(O)c3CC2)c(C)s1`, the cytotoxicity at 70.5 h is -7.8%.

`O=S1(=O)c2ccccc2C(O)CN1CCO` (stereo not given): the cytotoxicity at 70.5 h is -5.7%.

With `CCOCC(=O)NCCn1ccc(-c2ccccn2)n1`, the cytotoxicity at 70.5 h was -4.11%.

In the case of `CCNC(=O)CN1CCN(c2ccnc3c(F)ccc(F)c23)CC1`, the cytotoxicity at 70.5 h was -7.66%.

`COc1ccc(Cc2noc(C3=NN(C)C(=O)CC3)n2)cc1OC`: the cytotoxicity at 70.5 h was -2.26%.

Take `CC(NCc1cccn1C)c1noc(-c2ccc(Cl)cc2)n1` (stereo not given): the cytotoxicity at 70.5 h is -9.95%.

As for `O=C(c1ccoc1)N1CCc2c(COCc3ccncc3)cncc2C1`, the cytotoxicity at 70.5 h is 8.95%.

Consider `COC(=O)c1ccc(OCCn2cnc(C#N)n2)cc1`, for which the cytotoxicity at 70.5 h was -24.3%.

On to `CC(C)c1noc(OCC(=O)N(C)C(C)C)n1`, for which the cytotoxicity at 70.5 h was -12.3%.

Consider `COCC1CN(Cc2cnn(C)c2)Cc2nn(C)cc21` (stereo not given), for which the cytotoxicity at 70.5 h is -11.4%.

Turning to `COc1c(C2CCCN2Cc2nc(C)c(C)o2)c(C)nn1C` (stereo not given), the cytotoxicity at 70.5 h is -7.8%.

`COc1cccc(-n2nnc(C(=O)N3CCOC(C)C3)c2C)c1` (stereo not given): the cytotoxicity at 70.5 h was -1.7%.

Regarding `CCC(C)NS(=O)(=O)Cc1cccc(NC(=O)c2ccc[nH]2)c1` (stereo not given), the cytotoxicity at 70.5 h is -2.71%.

Regarding `CC(C)(C)c1nnc(CN2CCC(c3cc4ccccc4[nH]3)CC2)o1`, the cytotoxicity at 70.5 h turned out to be 17.4%.

Turning to `Cc1csc(N(C)C(=O)C2CC(=O)N(c3ccccc3Cl)C2)n1` (stereo not given), the cytotoxicity at 70.5 h turned out to be 4.48%.

As to `CC(=O)c1c(F)cccc1N1CCC(C(N)=O)CC1`, the cytotoxicity at 70.5 h is -1.92%.

Regarding `Cc1ccnc(OC[C@@]23CCO[C@@H]2CCN(S(C)(=O)=O)C3)n1`, the cytotoxicity at 70.5 h is -7.11%.

With `COc1ccc(Cc2noc(-c3ccc(NC(C)CO)nc3)n2)cc1` (stereo not given), the cytotoxicity at 70.5 h was determined as 3.07%.

Turning to `O=C(Cc1cc(-c2ccc3c(c2)OCCO3)on1)NCc1ccccn1`, the cytotoxicity at 70.5 h was -10.7%.

Turning to `COCCCNc1c(-c2ccc(C)cc2)c(=O)c1=O`, the cytotoxicity at 70.5 h was -6.65%.

As to `CC(=O)N1CCCn2nc(CNS(=O)(=O)N3CCC(C)CC3)cc2C1`, the cytotoxicity at 70.5 h was -11.6%.

Turning to `Cc1ncc(C(=O)N2CC(C(=O)N3CCCCCC3)C2)c(C)n1`, the cytotoxicity at 70.5 h was -4.02%.

For the compound `CCS(=O)(=O)NC(C(=O)NC)c1ccc(F)c(F)c1` (stereo not given), the cytotoxicity at 70.5 h is 2.45%.

Take `CN(C)C(=O)CN1CCC(c2c(C(N)=O)sc3ncccc23)C1` (stereo not given): the cytotoxicity at 70.5 h is -5.25%.

Turning to `COC(=O)C(C)CN(C)S(=O)(=O)c1c(Br)cc2[nH]c(=O)oc2c1Cl` (stereo not given), the cytotoxicity at 70.5 h is -4.98%.

With `CNC(=O)CN(C)C(=O)c1cc2ccccc2cc1OC`, the cytotoxicity at 70.5 h is -17.8%.

On to `N#Cc1ccc(OCC(=O)N2CCCC(n3cccn3)C2)cc1` (stereo not given), for which the cytotoxicity at 70.5 h is -4.85%.

For `Cc1nn(C)c(C)c1-c1cnc(CC2CCNCC2)cn1`, the cytotoxicity at 70.5 h is -4.79%.

For `Cn1nc(COc2cccnc2)c2c1CCN(c1cnccn1)C2`, the cytotoxicity at 70.5 h was -14.9%.

With `Cc1cc(C)n(CC2CCCN2C(=O)c2ccc3[nH]nnc3c2)n1` (stereo not given), the cytotoxicity at 70.5 h was 0.633%.

Regarding `Cn1cccc1-c1cc(C(=O)N2CCCC2c2nccs2)[nH]n1` (stereo not given), the cytotoxicity at 70.5 h was -0.138%.

Take `COc1ccc(NC(=O)CSC(F)(F)F)cn1`: the cytotoxicity at 70.5 h worked out at 9.73%.

As to `COc1cccn(C(C)C(=O)NC2CCCC2)c1=O` (stereo not given), the cytotoxicity at 70.5 h was -1.93%.

With `COc1cc(C(=O)NCc2ccc3c(c2)CCCN3C)cc(OC)c1Br`, the cytotoxicity at 70.5 h is -8.61%.
